Reference: US10064885B2, “Metabolic gene, enzyme, and flux targets for cancer therapy” (Massachusetts Institute of Technology, priority 2010, dated 2018)

What was measured:
Format in all cases: cell-based, human
[1] = test system: Hypoxia response element- (HRE-) driven reporter; assay: Hypoxia response element (HRE)-driven reporter in HCT116 cells expressing IDH1-targeting shRNAs; conditions: normal culture, hypoxia, or 1 mM DMOG, 18 hours
Procedure: Luciferase Assays. Subconfluent cells in 6 well plates were co-transfected with 1 μg of a firefly luciferase vector and 50 ng Renilla luciferase vector (pRL-TK; Promega) using Fugene 6 reagent. The ODD-Luciferase and Luciferase vectors were obtained from Addgene and based off of the pcDNA3.1 vector (49). Hypoxia responsive element-luciferase (HRE-Luc) vectors were used as described (50). Approximately 24 hours after transfection, medium was changed and cells were placed under normoxia, hypoxia, or treated with 1 mM dimethyloxalylglycine (DMOG). After 18 hours of treatment, cells were lysed and luciferase activity was determined using the Dual Luciferase Reporter Assay system (Promega) according to the manufacturer's instructions.

[2] = test system: MDA-MB-231 breast carcinoma; assay: Reductive carboxylation by [1-13C]glutamine labeling and GC/MS in MDA-MB-231 cells expressing shRNAs
Procedure: (§1) Cell Culture, Isotopic Labeling, and Hypoxia. All cell lines were cultured in Dulbecco's Modified Eagle Medium (DMEM; Mediatech) containing 10% fetal bovine serum (FBS; Invitrogen) and 100 U/ml penicillin/streptomycin (P/S; Mediatech) unless otherwise mentioned. Cell lines were obtained from ATCC unless otherwise noted. The VC3 glioma cell line was provided by Tim Lautenschlaeger (Ohio State University), MDA-MB-231 and HCT116 cell lines were provided by Ferdinando Chiaradonna (University of Milano-Bicocca), MRC5 cells were provided by Stephen Lippard (MIT), SN12C, ACHN, and 786-O cells were provided by Kevin Courtney and Lew Cantley (Harvard Medical School), and MCF10A cells were provided by Joan Brugge (Harvard Medical School), and Huh7 cells were provided by Mike Hemann (MIT). MCF10A cells were cultured in custom DMEM/F12 (Hyclone) containing 5% horse serum, 20 ng/ml EGF, 10 μg/ml insulin, 100 ng/ml cholera toxin, 0.5 mg/ml hydrocortisone, 100 U/ml penicillin/streptomycin, and labeled/unlabeled glucose and glutamine at 18 mM and 2.5 mM, respectively. PRC3, WT8, pTV, and pTR cell lines were subcloned from the 786-O cell line as previously described (42, 43). For isotopic labeling experiments, cells were cultured in 6 well plates in glucose- and glutamine-free DMEM (Sigma) containing 10% dialyzed FBS (Invitrogen), 100 U/ml P/S, naturally labeled glucose or glutamine, and the appropriate tracer, including [U-^13C5]glutamine (Isotec), [5-^13C]glutamine (C/D/N Isotopes), [1-^13C]glutamine, [U-^13C6]glucose, [1,2-^13C2]glucose (all from Cambridge Isotope Labs). Steady state labeling of organic and amino acids was accomplished by culturing subconfluent cells in tracer medium for 24 hours. […] The internal gas content was monitored using Fyrite gas analyzers (Bacharach) for CO2 and O2. […]
(§2) Metabolite Extraction and Gas Chromatography/Mass Spectrometry (GC/MS) Analysis. […] In some ISA experiments, cells were trypsinized, counted, and pelleted prior to lipid extraction as described above. […]

[3] = test system: HCT116 colon carcinoma; assay: Reductive carboxylation by [1-13C]glutamine labeling and GC/MS in HCT116 cells expressing shRNAs
Procedure: as §1, §2

[4] = test system: A549 cells; assay: Reductive glutamine metabolism by isotopic labeling and GC/MS in A549 cells expressing shRNAs; conditions: [U-13C5]glutamine, aspartate, malate, fumarate
Procedure: as §1, §2

[5] = test system: A549 cells; assay: 13C Metabolic Flux Analysis (MFA) of A549 cells expressing IDH1-targeting shRNAs, [U-13C5]glutamine tracer
Procedure: Cell Culture, Isotopic Labeling, and Hypoxia. All cell lines were cultured in Dulbecco's Modified Eagle Medium (DMEM; Mediatech) containing 10% fetal bovine serum (FBS; Invitrogen) and 100 U/ml penicillin/streptomycin (P/S; Mediatech) unless otherwise mentioned. Cell lines were obtained from ATCC unless otherwise noted. The VC3 glioma cell line was provided by Tim Lautenschlaeger (Ohio State University), MDA-MB-231 and HCT116 cell lines were provided by Ferdinando Chiaradonna (University of Milano-Bicocca), MRC5 cells were provided by Stephen Lippard (MIT), SN12C, ACHN, and 786-O cells were provided by Kevin Courtney and Lew Cantley (Harvard Medical School), and MCF10A cells were provided by Joan Brugge (Harvard Medical School), and Huh7 cells were provided by Mike Hemann (MIT). MCF10A cells were cultured in custom DMEM/F12 (Hyclone) containing 5% horse serum, 20 ng/ml EGF, 10 μg/ml insulin, 100 ng/ml cholera toxin, 0.5 mg/ml hydrocortisone, 100 U/ml penicillin/streptomycin, and labeled/unlabeled glucose and glutamine at 18 mM and 2.5 mM, respectively. PRC3, WT8, pTV, and pTR cell lines were subcloned from the 786-O cell line as previously described (42, 43). For isotopic labeling experiments, cells were cultured in 6 well plates in glucose- and glutamine-free DMEM (Sigma) containing 10% dialyzed FBS (Invitrogen), 100 U/ml P/S, naturally labeled glucose or glutamine, and the appropriate tracer, including [U-^13C5]glutamine (Isotec), [5-^13C]glutamine (C/D/N Isotopes), [1-^13C]glutamine, [U-^13C6]glucose, [1,2-^13C2]glucose (all from Cambridge Isotope Labs). Steady state labeling of organic and amino acids was accomplished by culturing subconfluent cells in tracer medium for 24 hours. Labeling of fatty acids for Isotopomer Spectral Analysis (USA) was conducted over 3-5 days of culture in an excess of tracer medium (3-4 ml/well in a 6 well plate) to prevent nutrient depletion. Hypoxic culture was conducted by feeding a custom mixture of 1% O2, 5% CO2, and 94% N2 to a standard incubator controlled at 5% CO2. HEPES (Mediatech) was added to the culture medium at 20 mM to maintain pH between normoxic and hypoxic cultures. The internal gas content was monitored using Fyrite gas analyzers (Bacharach) for CO2 and O2. O2 levels were confirmed at 1.5-2% during hypoxic culture.
Stable cell cultures with decreased IDH1 and IDH2 expression were generated via lentiviral-mediated shRNA expression. pLKO.1 lentiviral vectors targeting IDH1 with shRNA sequences of […] TT (IDH1a; TRCN0000027298; SEQ ID NO:1) and […] TT (IDH1b; TRCN0000027289; SEQ ID NO:2), IDH2 with shRNA sequence […] TT (TRCN0000027225; SEQ ID NO:3). For controls, either non-targeting control shRNA (SHC002; Sigma) or pLKO.1 scrambled control vector (44)(Addgene) were used. pLKO.1 vector targeting ARNT with shRNA sequence […] TT (TRCN0000003819; SEQ ID NO:4) was obtained from Open Biosystems.
HEK293T cells were co-transfected with pLKO.1 vectors and packaging plasmids to produce lentivirus. Filtered supernatants were used for infection, and cells were selected with puromycin (2 μg/ml) for at least two passages before initiating tracer and flux experiments.
Metabolite Extraction and Gas Chromatography/Mass Spectrometry (GC/MS) Analysis. At the conclusion of culture, cells were rinsed with 1 ml ice cold PBS and quenched with 0.4 ml ice cold methanol. An equal volume of water was added, and cells were collected in tubes by scraping with a pipette. One volume of ice cold chloroform was added to each tube, and the extracts were vortexed at 4° C. for 30 minutes. Samples were centrifuged at 14,000 g for 5 minutes at room temperature. For analysis of polar metabolites, the aqueous phase was transferred to a new tube for evaporation under airflow. For ISA experiments, the non-polar fraction was collected and evaporated under airflow. In some ISA experiments, cells were trypsinized, counted, and pelleted prior to lipid extraction as described above. […]

[6] = test system: 143B osteosarcoma; assay: Reductive carboxylation by [1-13C]glutamine labeling and GC/MS in 143B cells expressing shRNAs
Procedure: as §1, with “respectively.” for “respectively. PRC3, WT8, pTV, and pTR cell lines were subcloned from the 786-O cell line as previously described (42, 43). For isotopic labeling experiments, cells were cultured in 6 well plates in glucose- and glutamine-free DMEM (Sigma) containing 10% dialyzed FBS (Invitrogen), 100 U/ml P/S, naturally labeled glucose or glutamine, and the appropriate tracer, including [U-^13C5]glutamine (Isotec), [5-^13C]glutamine (C/D/N Isotopes), [1-^13C]glutamine, [U-^13C6]glucose, [1,2-^13C2]glucose (all from Cambridge Isotope Labs). Steady state labeling of organic and amino acids was accomplished by culturing subconfluent cells in tracer medium for 24 hours.”
as §2

[7] = Anaplerotic reactions, exchange flux
[8] = Anaplerotic reactions, net flux
[9] = Pentose Phosphate Pathway, exchange flux
[10] = Pentose Phosphate Pathway, net flux

## CCGGGCTGCTTGCATTAAAGGTTTACTCGAGTAAACCTTTAATGCAAGCAGCTTT TT (CCGGGCTGCTTGCATTAAAGGTTTACTCGAGTAAACCTTTAATGCAAGCAGCTTTTT; expressed or natural sequence) [IDH1a, pLKO.1 lentiviral vector shRNA targeting IDH1]
[1]
  HRE-driven reporter levels (hypoxia signaling): does not increase hypoxia signaling and stabilization
[2]
  reductive carboxylation flux (M1 label from [1-13C]glutamine): reduces reductive carboxylation flux
[3]
  reductive carboxylation flux (M1 label from [1-13C]glutamine): reduces reductive carboxylation flux
[4]
  M3 mass isotopomers derived from [U-13C5]glutamine (reductive carboxylation): decrease in reductive carboxylation
[5]; Amino acids, exchange flux
  Flux Pyr.m <−> Ala: 0.00 fmol/cell*hr
[5]; Amino acids, net flux
  Flux Gln −> Glu: 22.97 fmol/cell*hr
  Flux Gln.x −> Gln: 23.47 fmol/cell*hr
  Flux Glu −> Glu.x: 18.56 fmol/cell*hr
  Flux Pyr.m −> Ala: 0.42 fmol/cell*hr
[5]; [7]
  Flux Glu <−> Akg: 499.30 fmol/cell*hr
  Flux Mal <−> Pyr.m + CO2: 0.00 fmol/cell*hr
  Flux Oac <−> Asp: 0.01 fmol/cell*hr
[5]; [8]
  Flux Glu −> Akg: 3.90 fmol/cell*hr
  Flux Mal −> Pyr.m + CO2: 5.44 fmol/cell*hr
  Flux Oac −> Asp: 0.61 fmol/cell*hr
  Flux Pyr.m + CO2 −> Oac: 2.14 fmol/cell*hr
[5]; Biomass, net flux
  Flux 0.6*Asp + 0.5*Glu + 0.42*Ala + 0.5*Gln −> Biomass: 1.01 fmol/cell*hr
  Flux AcCoA.c −> Fatty acids: 10.65 fmol/cell*hr
  Flux Cit −> AcCoA.c + Oac: 10.65 fmol/cell*hr
  Flux P5P −> NTP: 0.50 fmol/cell*hr
[5]; Dilution/Mixing
  Flux 0*Pyr.c −> Pyr.mnt: 1.00 fmol/cell*hr
  Flux 0*Pyr.m −> Pyr.mnt: 0.00 fmol/cell*hr
  Flux 0*Suc −> Suc.mnt: 0.24 fmol/cell*hr
  Flux Suc.d −> Suc.mnt: 0.76 fmol/cell*hr
[5]; Dilution/Mixing, exchange flux
  Flux Pyr.c <−> Pyr.m: 82.77 fmol/cell*hr
[5]; Dilution/Mixing, net flux
  Flux Pyr.c −> Pyr.m: 11.79 fmol/cell*hr
[5]; Glycolysis, exchange flux
  Flux DHAP <−> GAP: 566.90 fmol/cell*hr
  Flux G6P <−> F6P: 3.2E+04 fmol/cell*hr
  Flux GAP <−> 3PG: 1.7E+08 fmol/cell*hr
  Flux Pyr.c <−> Lac: 706.50 fmol/cell*hr
[5]; Glycolysis, net flux
  Flux 3PG −> Pyr.c: 186.40 fmol/cell*hr
  Flux DHAP −> GAP: 91.96 fmol/cell*hr
  Flux F6P −> DHAP + GAP: 91.96 fmol/cell*hr
  Flux G6P −> F6P: 86.95 fmol/cell*hr
  Flux GAP −> 3PG: 186.40 fmol/cell*hr
  Flux Glc.x −> G6P: 94.96 fmol/cell*hr
  Flux Lac −> Lac.x: 174.60 fmol/cell*hr
  Flux Pyr.c −> Lac: 174.60 fmol/cell*hr
[5]; [9]
  Flux P5P + E4P <−> F6P + GAP: 1.76 fmol/cell*hr
  Flux P5P + P5P <−> S7P + GAP: 3.0E+04 fmol/cell*hr
  Flux S7P + GAP <−> F6P + E4P: 1.9E+05 fmol/cell*hr
[5]; [10]
  Flux G6P −> P5P + CO2: 8.01 fmol/cell*hr
  Flux P5P + E4P −> F6P + GAP: 2.50 fmol/cell*hr
  Flux P5P + P5P −> S7P + GAP: 2.50 fmol/cell*hr
  Flux S7P + GAP −> F6P + E4P: 2.50 fmol/cell*hr
[5]; TCA Cycle, exchange flux
  Flux Fum <−> Mal: 1.1E+06 fmol/cell*hr
  Flux Mal <−> Oac: 98.66 fmol/cell*hr
  Flux Suc <−> Fum: 0.00 fmol/cell*hr
[5]; TCA Cycle, exchange flux (reductive IDH flux)
  Flux Cit <−> Akg + CO2: 1.88 fmol/cell*hr
[5]; TCA Cycle, net flux
  Flux AcCoA.m + Oac −> Cit: 14.66 fmol/cell*hr
  Flux Akg −> Suc + CO2: 7.91 fmol/cell*hr
  Flux Fum −> Mal: 7.91 fmol/cell*hr
  Flux Mal −> Oac: 2.48 fmol/cell*hr
  Flux Pyr.m −> AcCoA.m + CO2: 14.66 fmol/cell*hr
  Flux Suc −> Fum: 7.91 fmol/cell*hr
[5]; TCA Cycle, net flux (IDH)
  Flux Cit −> Akg + CO2: 4.01 fmol/cell*hr
[6]
  reductive carboxylation flux: reduces reductive carboxylation flux
